In US20230212122A1, “MITOCHONDRIAL TARGETING COMPOUNDS FOR THE TREATMENT OF ASSOCIATED DISEASES” (The Regents of the University of Michigan, priority 2020, published 2023):

Test system: UM16 cell line
Experiment: GSEA of Bru-seq data (hallmark, KEGG, GO pathways, transcription factors)
Format: cell-based
Design: ES KEGG_MISMATCH_REPAIR / ES KEGG_HUNTINGTONS_DISEASE / ES KEGG_ALZHEIMERS_DISEASE / ES KEGG_VIBRIO_CHOLERAE_INFECTION / NES KEGG_VIBRIO_CHOLERAE_INFECTION / ES KEGG_RIBOSOME / NES KEGG_RIBOSOME / NES KEGG_RNA_POLYMERASE: dose or concentration left out as unconfirmed
Text: Consistent with this observation, there are also massive metabolite pathways influenced including starch and sucrose metabolism, glycolysis and gluconeogenesis, purine metabolism, pyrimidine metabolism, N-glycan biosynthesis, etc.

[1] = 5 μM, 4 hours, transcription factors
[2] = GO_AMIDE_BIOSYNTHETIC_PROCESS, 5 μM, 4 hours, FDR q-val 1.55E−04
[3] = GO_CYTOSOLIC_LARGE_RIBOSOMAL_SUBUNIT, 5 μM, 4 hours, FDR q-val 0
[4] = GO_CYTOSOLIC_PART, 5 μM, 4 hours, FDR q-val 0
[5] = GO_CYTOSOLIC_RIBOSOME, 5 μM, 4 hours, FDR q-val 0
[6] = GO_ESTABLISHMENT_OF_PROTEIN_LOCALIZATION_TO_ENDOPLASMIC_RETICULUM, 5 μM, 4 hours, FDR q-val 0
[7] = GO_LARGE_RIBOSOMAL_SUBUNIT, 5 μM, 4 hours, FDR q-val 0
[8] = GO_MATURATION_OF_SSU_RRNA, 5 μM, 4 hours, FDR q-val 6.60E−05
[9] = GO_MULTI_ORGANISM_METABOLIC_PROCESS, 5 μM, 4 hours, FDR q-val 0
[10] = GO_NCRNA_METABOLIC_PROCESS, 5 μM, 4 hours, FDR q-val 0
[11] = GO_NCRNA_PROCESSING, 5 μM, 4 hours, FDR q-val 0
[12] = GO_NUCLEAR_TRANSCRIBED_MRNA_CATABOLIC_PROCESS_NONSENSE_MEDIATED_DECAY, 5 μM, 4 hours, FDR q-val 3.62E−05
[13] = GO_NUCLEOLAR_PART, 5 μM, 4 hours, FDR q-val 0
[14] = GO_PEPTIDE_METABOLIC_PROCESS, 5 μM, 4 hours, FDR q-val 3.46E−05
[15] = GO_PRERIBOSOME, 5 μM, 4 hours, FDR q-val 0
[16] = GO_PROTEIN_LOCALIZATION_TO_ENDOPLASMIC_RETICULUM, 5 μM, 4 hours, FDR q-val 0
[17] = GO_RIBONUCLEOPROTEIN_COMPLEX_BIOGENESIS, 5 μM, 4 hours, FDR q-val 0
[18] = GO_RIBOSOMAL_SMALL_SUBUNIT_BIOGENESIS, 5 μM, 4 hours, FDR q-val 0
[19] = GO_RIBOSOMAL_SUBUNIT, 5 μM, 4 hours, FDR q-val 0
[20] = GO_RIBOSOME, 5 μM, 4 hours, FDR q-val 0
[21] = GO_RIBOSOME_BIOGENESIS, 5 μM, 4 hours, FDR q-val 0
[22] = GO_RRNA_BINDING, 5 μM, 4 hours, FDR q-val 0
[23] = GO_RRNA_METABOLIC_PROCESS, 5 μM, 4 hours, FDR q-val 0
[24] = GO_STRUCTURAL_CONSTITUENT_OF_RIBOSOME, 5 μM, 4 hours, FDR q-val 0
[25] = GO_TRANSLATIONAL_INITIATION, 5 μM, 4 hours, FDR q-val 0
[26] = GO_TRNA_PROCESSING, 5 μM, 4 hours, FDR q-val 3.79E−05
[27] = transcription factor set AAAYWAACM_HFH4_01, 5 μM, 4 hours, FDR q-val 0.013
[28] = transcription factor set AP4_Q5, 5 μM, 4 hours, FDR q-val 0.043
[29] = transcription factor set ATF1_Q6, 5 μM, 4 hours, FDR q-val 0.053
[30] = transcription factor set FAC1_01, 5 μM, 4 hours, FDR q-val 0.043
[31] = transcription factor set FOXO1_01, 5 μM, 4 hours, FDR q-val 0.039
[32] = transcription factor set FOXO3——01, 5 μM, 4 hours, FDR q-val 0.015
[33] = transcription factor set FREAC2_01, 5 μM, 4 hours, FDR q-val 0.008
[34] = transcription factor set HFH3_01, 5 μM, 4 hours, FDR q-val 0.042
[35] = transcription factor set OCT_Q6, 5 μM, 4 hours, FDR q-val 0.051
[36] = transcription factor set RTAAACA_FREAC2_01, 5 μM, 4 hours, FDR q-val 0.025

SMILES: CCOC(=O)[C@@H]1CCCN(S(=O)(=O)c2ccc(S(=O)(=O)N(CC)CC)cc2)C1 [DX2-201, ethyl (R)-1-((4-(N,N-diethylsulfamoyl)phenyl)sulfonyl)piperidine-3-carboxylate]
- ES E2F1_Q6 [1]: −0.355
- ES E2F1_Q6_01 [1]: −0.352
- ES E2F_03 [1]: −0.360
- ES E2F_Q6 [1]: −0.352
- ES GGAANCGGAANY_UNKNOWN [1]: −0.409
- ES MYCMAX_01 [1]: −0.425
- ES MYC_Q2 [1]: −0.429
- ES NMYC_01 [1]: −0.350
- ES SGCGSSAAA_E2F1DP2_01 [1]: −0.373
- ES YY1_Q6 [1]: −0.372
- NES E2F1_Q6 [1]: −1.568
- NES E2F1_Q6_01 [1]: −1.578
- NES E2F_03 [1]: −1.597
- NES E2F_Q6 [1]: −1.565
- NES GGAANCGGAANY_UNKNOWN [1]: −1.661
- NES MYCMAX_01 [1]: −1.853
- NES MYC_Q2 [1]: −1.792
- NES NMYC_01 [1]: −1.545
- NES SGCGSSAAA_E2F1DP2_01 [1]: −1.581
- NES YY1_Q6 [1]: −1.643
- ES KEGG_ALZHEIMERS_DISEASE (4 hours): −0.3872
- ES KEGG_HUNTINGTONS_DISEASE (4 hours): −0.4035
- ES KEGG_MISMATCH_REPAIR (4 hours): −0.6381
- ES KEGG_RIBOSOME (4 hours): −0.6266
- ES KEGG_VIBRIO_CHOLERAE_INFECTION (4 hours): −0.4430
- NES KEGG_RIBOSOME (4 hours): −2.4526
- NES KEGG_RNA_POLYMERASE (4 hours): −1.9613
- NES KEGG_VIBRIO_CHOLERAE_INFECTION (4 hours): −1.4689
- DNA repair and mismatch repair gene sets (Bru-seq) (4 hours of treatment): downregulated
- glycolysis pathway (Bru-seq) (4 hours of treatment): dramatically upregulated
- myc target gene sets and E2F target gene set (Bru-seq) (4 hours of treatment): downregulated
- oxidative phosphorylation (Bru-seq) (4 hours of treatment): significantly downregulated
- ES [2]: −0.454
- NES [2]: −2.193
- ES [3]: −0.629
- NES [3]: −2.298
- ES [4]: −0.537
- NES [4]: −2.371
- ES [5]: −0.626
- NES [5]: −2.548
- ES [6]: −0.589
- NES [6]: −2.417
- ES [7]: −0.585
- NES [7]: −2.298
- ES [8]: −0.642
- NES [8]: −2.206
- ES [9]: −0.557
- NES [9]: −2.388
- ES [10]: −0.528
- NES [10]: −2.591
- ES [11]: −0.594
- NES [11]: −2.802
- ES [12]: −0.539
- NES [12]: −2.231
- ES [13]: −0.630
- NES [13]: −2.294
- ES [14]: −0.461
- NES [14]: −2.222
- ES [15]: −0.648
- NES [15]: −2.348
- ES [16]: −0.563
- NES [16]: −2.329
- ES [17]: −0.552
- NES [17]: −2.663
- ES [18]: −0.653
- NES [18]: −2.377
- ES [19]: −0.581
- NES [19]: −2.491
- ES [20]: −0.589
- NES [20]: −2.626
- ES [21]: −0.616
- NES [21]: −2.869
- ES [22]: −0.650
- NES [22]: −2.367
- ES [23]: −0.604
- NES [23]: −2.757
- ES [24]: −0.539
- NES [24]: −2.395
- ES [25]: −0.590
- NES [25]: −2.521
- ES [26]: −0.559
- NES [26]: −2.240
- ES [27]: 0.431
- NES [27]: 1.896
- ES [28]: 0.393
- NES [28]: 1.743
- ES (transcription factor set AP4_Q6, 5 μM, 4 hours, FDR q-val 0.078): 0.377
- ES (transcription factor set AREB6_04, 5 μM, 4 hours, FDR q-val 0.098): 0.346
- ES [29]: 0.383
- NES [29]: 1.701
- ES (transcription factor set E47_01, 5 μM, 4 hours, FDR q-val 0.060): 0.363
- ES [30]: 0.394
- NES [30]: 1.751
- ES (transcription factor set FOXJ2_02, 5 μM, 4 hours, FDR q-val 0.090): 0.364
- ES [31]: 0.384
- NES [31]: 1.732
- ES (transcription factor set FOXO1_02, 5 μM, 4 hours, FDR q-val 0.007): 0.459
- ES [32]: 0.417
- NES [32]: 1.860
- ES (transcription factor set FOXO4_01, 5 μM, 4 hours, FDR q-val 0.014): 0.464
- ES (transcription factor set FOXO4_02, 5 μM, 4 hours, FDR q-val 0.007): 0.454
- ES [33]: 0.440
- NES [33]: 1.964
- ES (transcription factor set FREAC3_01, 5 μM, 4 hours, FDR q-val 0.058): 0.375
- ES [34]: 0.401
- NES [34]: 1.733
- ES (transcription factor set HNF3_Q6, 5 μM, 4 hours, FDR q-val 0.073): 0.392
- ES (transcription factor set NKX62_Q2, 5 μM, 4 hours, FDR q-val 0.058): 0.387
- ES (transcription factor set OCT1_Q5_01, 5 μM, 4 hours, FDR q-val 0.094): 0.357
- ES [35]: 0.381
- NES [35]: 1.697
- ES (transcription factor set PAX2_02, 5 μM, 4 hours, FDR q-val 0.061): 0.374
- ES [36]: 0.344
- NES [36]: 1.816
- ES (transcription factor set RYCACNNRNNRNCAG_UNKNOWN, 5 μM, 4 hours, FDR q-val 0.075): 0.462
- ES (transcription factor set TTANWNANTGGM_UNKNOWN, 5 μM, 4 hours, FDR q-val 0.051): 0.511
- ES (transcription factor set YWATTWNNRGCT_UNKNOWN, 5 μM, 4 hours, FDR q-val 0.059): 0.482
